Test results taken from US7279494B2, “Antimicrobial [3.1.0] bicyclohexylphenyl-oxazolidinone derivatives and analogues” (Pfizer Inc., priority 2003, dated 2007).
Converted amounts (≈) assume the structure as drawn.

Key:
Assay type in all cases: cell-based
[1] = test system: S. aureus UC9213; experiment: MIC by standard agar dilution, S. aureus UC9213; details: incubated overnight at 35° C.; for MIC: Staphylococcus aureus, UC9213, Mueller Hinton agar
Description: (§1) The in vitro activity of compounds of the subject invention may be assessed by standard testing procedures such as the determination of minimum inhibitory concentration (MIC) by agar dilution as described in “Approved Standard. Methods for Dilution Antimicrobial Susceptibility Tests for Bacteria that Grow Aerobically,” 3rd ed., published 1993 by the National Committee for Clinical Laboratory standards, Villanova, Pa., USA.
(§2) The in vitro MICs of test compounds may be determined by a standard agar dilution method. A stock drug solution of each analog is prepared in a preferred solvent, usually DMSO:H2O (1:3). Serial 2-fold dilutions of each sample are made using 1.0 mL aliquots of sterile distilled water. To each 1.0 mL aliquot of drug is added 9 mL of molten Mueller Hinton agar medium. The drug-supplemented agar is mixed, poured into 15×100 mm petri dishes, and allowed to solidify and dry prior to inoculation.
(§3) Vials of each of the test organisms are maintained frozen in the vapor phase of a liquid nitrogen freezer. Test cultures are grown overnight at 35° C. on the medium appropriate for the organism. Colonies are harvested with a sterile swab, and cell suspensions are prepared in Trypticase Soy broth (TSB) to equal the turbidity of a 0.5 McFarland standard. A 1:20 dilution of each suspension is made in TSB. The plates containing the drug supplemented agar are inoculated with a 0.001 mL drop of the cell suspension using a Steers replicator, yielding approximately 10^4 to 10^5 cells per spot. The plates are incubated overnight at 35° C.
(§4) Following incubation the Minimum Inhibitory Concentration (MIC μg/mL), the lowest concentration of drug that inhibits visible growth of the organism, is read and recorded.

[2] = test system: S. pneumoniae UC9912; experiment: MIC by standard agar dilution, S. pneumoniae UC9912; details: incubated overnight at 35° C.; for MIC: Streptococcus pneumoniae, UC9912, Mueller Hinton agar
Description: as §1, §2, §3, §4

[3] = test system: H. influenzae 30063; experiment: MIC by standard agar dilution, H. influenzae 30063; details: Haemophilus influenzae, 30063, agar dilution, Mueller Hinton agar, incubated overnight at 35° C.; read-out: H. influenzae 30063 MIC
Description: as §1, §2, §3, §4

SMILES | MIC [1] [µg/mL] | MIC [2] [µg/mL] | MIC [3] [µg/mL] | S. aureus UC9213 MIC ([1]; Mueller Hinton agar) [µg/mL] | S. pneumoniae UC9912 MIC ([2]; Mueller Hinton agar) [µg/mL]
CC(=O)NC[C@H]1CN(c2ccc([C@H]3[C@@H]4CS(=O)(=O)C[C@@H]43)cc2)C(=O)O1 [Example 19, N-[((5S)-3-{4-[exo-(1R,5S)-3,3-dioxido-3-thiabicyclo[3.1.0]hex-6-yl]phenyl}-2-oxo-1,3-oxazolidin-5-yl)methyl]acetamide] | 4 (≈ 11 µM) | 1 (≈ 2.74 µM) | 8 (≈ 22 µM) |  | 
COC(=O)N1C[C@@H]2C(c3ccc(N4C[C@H](CNC(C)=O)OC4=O)cc3F)[C@@H]2C1 (stereo partly drawn) [Example 7, methyl exo-(1R,5S)-6-(4-{(5S)-5-[(acetylamino)methyl]-2-oxo-1,3-oxazolidin-3-yl}-2-fluorophenyl)-3-azabicyclo[3.1.0]hexane-3-carboxylate] |  |  |  | 2 | 0.5
CCC(=O)NC[C@H]1CN(c2ccc([C@H]3[C@@H]4CN(C(N)=O)C[C@@H]43)c(F)c2)C(=O)O1 [Example 23, exo-(1R,5S)-6-(4-{(5S)-5-[(propanoylamino)methyl]-2-oxo-1,3-oxazolidin-3-yl}-2-fluorophenyl)-3-azabicyclo[3.1.0]hexane-3-carboxamide] | 1 (≈ 2.56 µM) | 0.25 (≈ 0.64 µM) | 4 (≈ 10.2 µM) |  | 
CCC(=O)NC[C@H]1CN(c2ccc([C@H]3[C@@H]4CNC[C@@H]43)c(F)c2)C(=O)O1 [Example 21, N-[((5S)-3-{4-[exo-(1R,5S)-3-azabicyclo[3.1.0]hex-6-yl]-3-fluorophenyl}-2-oxo-1,3-oxazolidin-5-yl)methyl]proyanamide] | 4 (≈ 11.5 µM) | 1 (≈ 2.88 µM) | 8 (≈ 23 µM) |  | 
CC(=O)NCC(=O)N1C[C@@H]2[C@H](C1)[C@H]2c1ccc(N2C[C@H](CNC(C)=O)OC2=O)cc1F [Example 36, N-[((5S)-3-{3-fluoro-4-[exo-(1R,5S)-3-acetylaminoacetyl-3-azabicyclo[3.1.0]hex-6-yl]phenyl}-2-oxo-1,3-oxazolidin-5-yl)methyl]acetamide] | 8 (≈ 18.5 µM) | 4 (≈ 9.25 µM) | 32 (≈ 74 µM) |  | 
CC(=O)NC[C@H]1CN(c2ccc([C@H]3[C@@H]4C[S+]([O-])C[C@@H]43)cc2)C(=O)O1 (stereo partly drawn) [Example 18, N-[((5S)-3-{4-[exo-(1R,5S)-3-oxido-3-thiabicyclo[3.1.0]hex-6-yl]phenyl}-2-oxo-1,3-oxazolidin-5-yl)methyl]acetamide] | 2 (≈ 5.74 µM) | 0.5 (≈ 1.44 µM) | 4 (≈ 11.5 µM) |  | 
CC(=O)NC[C@H]1CN(c2ccc([C@H]3[C@@H]4CN(CCF)C[C@@H]43)c(F)c2)C(=O)O1 [Example 46, N-[((5S)-3-{3-fluoro-4-[exo-(1R,5S)-3-(2-fluoroethyl)-3-azabicyclo[3.1.0]hex-6-yl]phenyl}-2-oxo-1,3-oxazolidin-5-yl)methyl]acetamide] | 8 (≈ 21.1 µM) | 2 (≈ 5.27 µM) | 16 (≈ 42.2 µM) |  | 
CC(=O)NC[C@H]1CN(c2cc(F)c([C@H]3[C@@H]4COC[C@@H]43)c(F)c2)C(=O)O1 [Example 14, N-[((5S)-3-{3,5-difluoro-4-[exo-(1R,5S)-3-oxabicyclo[3.1.0]hex-6-yl]phenyl}-2-oxo-1,3-oxazolidin-5-yl)methyl]acetamide] | 2 (≈ 5.68 µM) | 0.5 (≈ 1.42 µM) | 16 (≈ 45.4 µM) |  | 
CCC(=O)NC[C@H]1CN(c2ccc([C@H]3[C@@H]4CN(C(=O)CO)C[C@@H]43)c(F)c2)C(=O)O1 [Example 26, N-[((5S)-3-{3-fluoro-4-[exo-(1R,5S)-3-glycoloyl-3-azabicyclo[3.1.0]hex-6-yl]phenyl}-2-oxo-1,3-oxazolidin-5-yl)methyl]propanamide] | 1 (≈ 2.47 µM) | 0.5 (≈ 1.23 µM) | 4 (≈ 9.87 µM) |  | 
CC(=O)NC[C@H]1CN(c2cc(F)c([C@H]3[C@@H]4CN(C(=O)CO)C[C@@H]43)c(F)c2)C(=O)O1 [Example 15, N-[((5S)-3-{3,5-difluoro-4-[exo-(1R,5S)-3-glycoloyl-3-azabicyclo[3.1.0]hex-6-yl]phenyl}-2-oxo-1,3-oxazolidin-5-yl)methyl]acetamide] | 2 (≈ 4.89 µM) | 0.5 (≈ 1.22 µM) | 16 (≈ 39.1 µM) |  | 

Other lines, results leading:

MIC [1] [µg/mL] | MIC [2] [µg/mL] | MIC [3] [µg/mL] | S. aureus UC9213 MIC ([1]; Mueller Hinton agar) [µg/mL] | S. pneumoniae UC9912 MIC ([2]; Mueller Hinton agar) [µg/mL] | SMILES
4 (≈ 9.84 µM) | 2 (≈ 4.92 µM) | 16 (≈ 39.4 µM) |  |  | O=C(NC[C@H]1CN(c2ccc([C@H]3[C@@H]4C[S+]([O-])C[C@@H]43)c(F)c2)C(=O)O1)C1CCC1 (stereo partly drawn) [Example 56, N-[((5S)-3-{3-fluoro-4-[exo-(1R,5S)-3-oxido-3-thiabicyclo[3.1.0]hex-6-yl]phenyl}-2-oxo-1,3-oxazolidin-5-yl)methyl]cyclobutanecarboxamide]
4 (≈ 10.5 µM) | 2 (≈ 5.23 µM) | 8 (≈ 20.9 µM) |  |  | O=C(CO)NC[C@H]1CN(c2ccc([C@H]3[C@@H]4C[S+]([O-])C[C@@H]43)c(F)c2)C(=O)O1 (stereo partly drawn) [Example 66, N-[((5S)-3-{3-fluoro-4-[exo-(1R,5S)-3-oxido-3-thiabicyclo[3.1.0]hex-6-yl]phenyl}-2-oxo-1,3-oxazolidin-5-yl)methyl]-2-hydroxyacetamide]
4 (≈ 10.4 µM) | 1 (≈ 2.59 µM) | 16 (≈ 41.4 µM) |  |  | CC(=O)NC[C@H]1CN(c2ccc([C@H]3[C@@H]4CN(CCC#N)C[C@@H]43)c(F)c2)C(=O)O1 [Example 48, N-[((5S)-3-{3-fluoro-4-[exo-(1R,5S)-3-(2-cyanoethyl)-3-azabicyclo[3.1.0]hex-6-yl]phenyl}-2-oxo-1,3-oxazolidin-5-yl)methyl]acetamide]
32 (≈ 85.2 µM) | 8 (≈ 21.3 µM) | 64 (≈ 170 µM) |  |  | CC(=O)NC[C@H]1CN(c2ccc([C@H]3[C@@H]4CN(C(=N)N)C[C@@H]43)c(F)c2)C(=O)O1 [Example 72, N-{[(5S)-3-(4-{exo-(1R,5S)-3-[amino(imino)methyl]-3-azabicyclo[3.1.0]hex-6-yl}-3-fluorophenyl)-2-oxo-1,3-oxazolidin-5-yl]methyl}acetamide]
4 (≈ 10 µM) | 4 (≈ 10 µM) | 4 (≈ 10 µM) |  |  | O=C(CO)NC[C@H]1CN(c2ccc([C@H]3[C@@H]4CS(=O)(=O)C[C@@H]43)c(F)c2)C(=O)O1 [Example 67, N-[((5S)-3-{3-fluoro-4-{exo-(1R,5 S)-3,3-dioxido-3-thiabicyclo[3.1.0]hex-6-yl]phenyl}-2-oxo-1,3-oxazolidin-5-yl)methyl]-2-hydroxyacetamide]
4 (≈ 9.45 µM) | 2 (≈ 4.72 µM) | 8 (≈ 18.9 µM) |  |  | CCC(=O)NC[C@H]1CN(c2cc(F)c([C@H]3[C@@H]4CN(C(=O)CO)C[C@@H]43)c(F)c2)C(=O)O1 [Example 64, N-[((5S)-3-{3,5-difluoro-4-[exo-(1R,5S)-3-glycoloyl-3-azabicyclo[3.1.0]hex-6-yl]phenyl]-2-oxo-1,3-oxazolidin-5-yl)methyl]propanamide]
2 (≈ 4.9 µM) | 1 (≈ 2.45 µM) | 8 (≈ 19.6 µM) |  |  | CCC(=O)NC[C@H]1CN(c2cc(F)c([C@H]3[C@@H]4CN(C(N)=O)C[C@@H]43)c(F)c2)C(=O)O1 [Example 63, exo-(1R,5S)-6-(4-{(5S)-5-[(propanoylamino)methyl]-2-oxo-1,3-oxazolidin-3-yl}-2,6-difluorophenyl)-3-azabicyclo[3.1.0]hexane-3-carboxamide]
1 (≈ 2.5 µM) | 1 (≈ 2.5 µM) | 4 (≈ 9.99 µM) |  |  | CC(=O)NC[C@H]1CN(c2ccc([C@H]3[C@@H]4CN(/C(N)=N/C#N)C[C@@H]43)c(F)c2)C(=O)O1 [Example 74, exo-(1R,5S)-N′-cyano-6-(4-{(5S)-5-[(acetylamino)methyl]-2-oxo-1,3-oxazolidin-3-yl}-2-fluorophenyl)-3-azabicyclo[3.1.0]hexane-3-carboximidamide]
4 (≈ 9.79 µM) | 2 (≈ 4.9 µM) | 4 (≈ 9.79 µM) |  |  | O=C(NC[C@H]1CN(c2ccc([C@H]3[C@@H]4CS(=O)(=O)C[C@@H]43)c(F)c2)C(=O)O1)C1CC1 [Example 53, N-[((5S)-3-{3-fluoro-4-[exo-(1R,5S)-3,3-dioxido-3-thiabicyclo[3.1.0]hex-6-yl]phenyl}-2-oxo-1,3-oxazolidin-5-yl)methyl]cyclopropanecarboxamide]
4 (≈ 10.2 µM) | 1 (≈ 2.55 µM) | 8 (≈ 20.4 µM) |  |  | N#CCC(=O)NC[C@H]1CN(c2ccc([C@H]3[C@@H]4C[S+]([O-])C[C@@H]43)c(F)c2)C(=O)O1 (stereo partly drawn) [Example 68, 2-cyano-N-[((5S)-3-{3-fluoro-4-[exo-(1R,5S)-3-oxido-3-thiabicyclo[3.1.0]hex-6-yl]phenyl}-2-oxo-1,3-oxazolidin-5-yl)methyl]acetamide]
2 (≈ 5.26 µM) | 1 (≈ 2.63 µM) | 4 (≈ 10.5 µM) |  |  | CCC(=O)NC[C@H]1CN(c2ccc([C@H]3[C@@H]4C[S+]([O-])C[C@@H]43)c(F)c2)C(=O)O1 (stereo partly drawn) [Example 50, N-[((5S)-3-{3-fluoro-4-[exo-(1R,5S)-3-oxido-3-thiabicyclo[3.1.0]hex-6-yl]phenyl}-2-oxo-1,3-oxazolidin-5-yl)methyl]proyanamide]
2 (≈ 4.95 µM) | 2 (≈ 4.95 µM) | 16 (≈ 39.6 µM) |  |  | NC(=O)N1C[C@@H]2[C@H](C1)[C@H]2c1c(F)cc(N2C[C@H](Cn3ccnn3)OC2=O)cc1F [Example 65, exo-(1R,5S)-6-{2,6-difluoro-4-[(5R)-2-oxo-5-(1H-1,2,3-triazol-1-ylmethyl)-1,3-oxazolidin-3-yl]phenyl}-3-azabicyclo[3.1.0]hexane-3-carboxamide]
